Patent US5405831A, “Treatment of bone disorders” (Amylin Pharmaceuticals, Inc., priority 1989, dated 1995)
Like-named read-outs stand apart in the source and are kept apart here.

How the values were obtained:
isolated osteoclasts = experiment: functional responses of isolated osteoclasts (motility, cytosolic calcium, retraction); format: cell-based
Excerpt: Thus, it appears that osteoclast activity may be restrained via two receptor types; calcitonin acts at both while amylin acts mainly via only one, reducing motility, reducing resorption and probably acting via the second messenger cAMP (Zaidi et. al. 1990, J. Endocrinol 126, 473-481.

chick = settings: higher doses; cited from earlier work
rat osteoclasts [1] = settings: Zaidi et al. 1988; cited from earlier work
rabbit = settings: cited from earlier work
rat osteoclasts [2] = experiment: bone resorption assay (disaggregated rat osteoclasts on human cortical bone slices); settings: osteoclasts counted on hormone-treated versus control bone slices
Procedure: Following incubation (37° C.; 15 minutes), the bone slices were removed, washed gently in Minimal Essential Medium with FCS (10%, v/v) (MEM/FCS) and placed in separate wells (each well contained 5-6 slices and 900 μl MEM/FCS). Either one or two homogeneous suspensions of osteoclasts were used for each experiment. When two suspensions were used, the experiment was divided into two blocks, each of which included all treatments and one suspension. After further incubation (37° C., 10% humidified CO2, 10 minutes), 100 μl of MEM/FCS containing the test substance was added. Finally, bone slices were incubated overnight (37° C., 10% humidified CO2, 18 hours) and quantified in terms of cell numbers and bone resorption. After fixation in glutaraldehyde, cells were stained with toluidine blue and examined by transmitted light microscopy. In order to rule out toxic effects, osteoclasts were counted on three slices for every variable and their numbers were then compared on hormone-treated and control bone slices. […] Osteoclastic excavations, each defined by a continuous border within an area of unresorbed bone were counted. The area of bone surface resorbed was calculated by tracing the outline of the concavities into an image processor (Sight Systems, Newbury, Berks).

calcitonin
cell retraction (isolated osteoclasts): caused cell retraction | cytosolic calcium (isolated osteoclasts): elevated cytosolic calcium | osteoclast motility (isolated osteoclasts): inhibited osteoclast motility

CGRP
effect on plasma calcium (chick): parathyroid hormone-like hypercalcemic effect | osteoclastic bone resorption (rat osteoclasts [1]): inhibits osteoclastic bone resorption | effect on plasma calcium (rabbit; rabbit, higher doses): parathyroid hormone-like hypercalcemic effect | effect on plasma calcium (rabbit; rabbits, lower doses): hypocalcaemic

CC[C@H](C)[C@H](NC(=O)[C@H](C)NC(=O)CNC(=O)[C@H](Cc1ccccc1)NC(=O)[C@H](CC(N)=O)NC(=O)[C@H](CC(N)=O)NC(=O)[C@H](CO)NC(=O)[C@H](CO)NC(=O)[C@H](Cc1c[nH]cn1)NC(=O)[C@@H](NC(=O)[C@H](CC(C)C)NC(=O)[C@H](Cc1ccccc1)NC(=O)[C@H](CC(N)=O)NC(=O)[C@H](C)NC(=O)[C@H](CC(C)C)NC(=O)[C@H](CCCNC(=N)N)NC(=O)[C@H](CCC(N)=O)NC(=O)[C@@H](NC(=O)[C@H](C)NC(=O)[C@@H]1CSSC[C@H](NC(=O)[C@@H](N)CCCCN)C(=O)N[C@@H](CC(N)=O)C(=O)N[C@@H]([C@@H](C)O)C(=O)N[C@@H](C)C(=O)N[C@@H]([C@@H](C)O)C(=O)N1)[C@@H](C)O)C(C)C)C(=O)N[C@@H](CC(C)C)C(=O)N[C@@H](CO)C(=O)N[C@@H](CO)C(=O)N[C@H](C(=O)N[C@@H](CC(N)=O)C(=O)N[C@H](C(=O)NCC(=O)N[C@@H](CO)C(=O)N[C@@H](CC(N)=O)C(=O)N[C@H](C(=O)N[C@@H](Cc1ccc(O)cc1)C(N)=O)[C@@H](C)O)C(C)C)[C@@H](C)O [amylin]
osteoclast cell number or viability (rat osteoclasts [2]): without affecting cell number of viability
